# Measured values from US7323456B2, “Carboxylic acid derivatives compounds and agents comprising the compounds as active ingredient” (Ono Pharmaceutical Co., Ltd., priority 2001, dated 2008).
# How the values were obtained:
# human PPAR γ = target: T1, human PPAR γ (Homo sapiens, UniProt P37231); assay: Luciferase assay of PPAR γ agonistic activity (Gal4-PPAR chimeric receptor, CV-1 cells); type: cell-based; conditions: compound 10 μM, luciferase activity of troglitazone (10 μM) defined as 1.0, 42 hours
# T1 construct: expressed in transfected cells; host or cells: CV-1 cells
# T1 sequence (P37231 204-505): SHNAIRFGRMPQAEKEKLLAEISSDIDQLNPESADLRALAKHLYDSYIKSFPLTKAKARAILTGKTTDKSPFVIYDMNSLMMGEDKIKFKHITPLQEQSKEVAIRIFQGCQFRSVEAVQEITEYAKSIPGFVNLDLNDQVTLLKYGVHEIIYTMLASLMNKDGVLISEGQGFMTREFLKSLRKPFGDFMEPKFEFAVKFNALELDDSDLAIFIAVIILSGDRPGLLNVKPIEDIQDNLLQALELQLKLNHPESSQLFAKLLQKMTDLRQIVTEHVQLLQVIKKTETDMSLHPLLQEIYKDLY
# human PPAR α = target: T2, human PPAR α (Homo sapiens, UniProt Q07869); assay: Luciferase assay of PPAR α agonistic activity (Gal4-PPAR chimeric receptor, CV-1 cells); type: cell-based; conditions: compound 10 μM, luciferase activity of carbacyclin (10 μM) defined as 1.0, 42 hours
# T2 construct: expressed in transfected cells; host or cells: CV-1 cells
# T2 sequence (Q07869 167-468): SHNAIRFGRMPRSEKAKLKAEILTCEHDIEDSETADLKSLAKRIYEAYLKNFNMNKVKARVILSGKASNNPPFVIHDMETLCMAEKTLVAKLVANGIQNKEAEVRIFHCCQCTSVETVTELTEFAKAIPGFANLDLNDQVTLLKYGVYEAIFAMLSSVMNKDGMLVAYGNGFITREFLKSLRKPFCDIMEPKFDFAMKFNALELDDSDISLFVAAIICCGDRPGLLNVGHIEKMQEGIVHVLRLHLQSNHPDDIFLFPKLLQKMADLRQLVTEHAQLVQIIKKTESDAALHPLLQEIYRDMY
compound,measurement,setting,value
"C=CCN(CC(=O)O)Cc1cccc(OCCc2nc(-c3ccc(N4CCCCCC4)nc3)oc2C)c1 [Example 2, 2-(N-allyl-N-(3-(2-(2-(6-(perhydroazepin-1-yl)pyridin-3-yl)-5-methyloxazol-4-yl)ethoxy)benzyl)amino)acetic acid]",Relative Activity to a positive control compound (troglitazone = 1),human PPAR γ,11.5
same,Relative Activity to a positive control compound (carbacyclin = 1),human PPAR α,0.9
